Results from patent US20260207626A1, “SYNTHETIC TRITERPENOIDS AND COMPOSITIONS THEREOF IN WEIGHT MANAGEMENT, SKELETAL MUSCLE FUNCTION, AND APPETITE SUPPRESSION” (The Board of Regents of the University of Texas System, priority 2022, published 2026).
“Also recorded” adds a separate entry of the source.

What was measured:
NFκB = experiment: Western blot of palmitate (PA)-induced NFκB phosphorylation in L6-GLUT4myc myotubes; type: cell-based, rat; conditions: CDDO-EA 500 nM 1 h then PA 400 μM 6 h
Protocol: L6-GLUT4myc myotubes were pretreated with CDDO-EA (500 nM, 1 h) and then treated with PA (400 μM, 6 h). NFκB phosphorylation and protein were measured by Western blotting. Data are represented as ±SEM. * P<0.05 vs. control; ^#P<0.05 vs. […]. (One-Way ANOVA).

[1] = Serum glucose and insulin, oral glucose tolerance test (OGTT) in mice fed LFD or HFD with or without CDDO-EA; type: in vivo, C57B16/J mice
Protocol: Data were statistically analyzed by One-Way ANOVA, Two-Way ANOVA with repeated measures, or Two-Way ANOVA with Tukey's multiple comparison test. Throughout the collection of blood samples, OGTTs, and measurement of bodyweight, mice were unrestrained and awake. Blood samples were collected via tail snip before start of experimental feeding and then every two weeks. Oral glucose tolerance tests (OGTTs) were performed after the six-week experimental feeding, and blood samples were collected via tail snip during the OGTT. For OGTT, mice were given 2 g of glucose/kg of body weight by gavage after a five hour fast (36). Glucose levels were measured using a glucometer (Contour), and insulin concentrations were measured using an ELISA (Mercodia). Mice were weighed once a week. Glucose and insulin serum levels were measured every two weeks.
Glucose and insulin levels were measured in the subject animals to determine if prevention of obesity by CDDO-EA in a high fat diet (HFD) chow regimen and in a low fat diet (LFD) regimen coincided with a reduction in hyperglycemia and hyperinsulinemia.

NF-κB = NF-κB luciferase reporter assay in L6-GLUT4myc myotubes; type: cell-based, rat; conditions: 500 nM CDDO-EA 1 hr then 100 ng/ml LPS 6 hours
Protocol: To determine the effects of CDDO-EA on LPS-induced NF-κB transcriptional activity in L6-GLUT4myc myotubes, a luciferase reporter under the control of a promoter containing NF-κB transcription binding sites was used.
Luciferase assay: L6-GLUT4myc myoblasts were transfected with 2 μg of phosphorylated NF-κB-MetLuc2-Reporter plasmid as described previously. After transfection, cells were plated onto a 24-well dish (1.5×10^5 cells/well) and pre-treated with CDDO-EA for 1 h. Myotubes were then stimulated with LPS 100 ng/ml (E. coli 0111: B4, Sigma Aldrich) for 6 h, and luciferase activity was measured using the Ready-To-Glow™ NF-κB Secreted Luciferase Reporter System as described.

TNF-α = experiment: RT-PCR of PA-induced TNF-α gene expression in L6-GLUT4myc myotubes; type: cell-based, rat; conditions: CDDO-EA 500 nM 1 h then PA 400 μM 6 h
Protocol: (§1) L6-GLUT4myc myotubes were pretreated with CDDO-EA (500 nM, 1 h) and treated PA (400 μM, 6 h). TNF-α and MCP-1 gene expression were measured by RT-PCR. Data are represented as +SEM *P<0.05 vs. control, ^#P<0.05 vs. control. * P<0.05 vs. LPS, $P<0.05 vs. PA. (One-Way ANOVA).

GLUT4 = experiment: GLUT4myc translocation by immunofluorescence in L6-GLUT4myc myotubes; type: cell-based, rat
Protocol: Immunofluorescence and confocal microscopy were employed to visualize the localization of c-myc epitope-tagged GLUT4 in L6-GLUT4myc myotubes treated with CDDO-EA for 1 h. L6-GLUT4myc myotubes were also treated with insulin alone for 15 min as a positive control.
To examine the properties of CDDO-EA in regulating glucose metabolism in the skeletal muscle, the present study examined whether CDDO-EA induces translocation of GLUT4 to the cell surface (FIG. 16A). Immunofluorescence and confocal microscopy were used to visualize the localization of c-myc epitope-tagged GLUT4 in L6-GLUT4myc cells.
Immunofluorescence microscopy: L6-GLUT4myc myoblasts (4×10^4 cells/ml, 0.2 ml/well) were plated onto Nunc Lab-TekII 8-chamber slides (Thermo Fisher Scientific) and differentiated for 7 days. Myotubes were pre-treated with CDDO-EA 500 nM for 1 h followed by LPS 100 ng/ml (E. coli O111: B4, Sigma Aldrich) treatment for 1 h. After treatment, myotubes were fixed, permeabilized, and stained with anti-NF-κB p65 primary antibody (cat #sc-372, 1:100, Santa Cruz Biotechnology) and a goat anti-rabbit secondary antibody conjugated with Alexa Fluor® 488 (cat #A32731, 1:500, Invitrogen) as previously described. For GLUT4myc cell membrane staining, myotubes were pre-treated with CDDO-EA 500 nM for 1 h followed by LPS 100 ng/ml (E. coli 0111: B4, Sigma Aldrich) treatment for 1 h. Insulin 100 nM (cat #19278, Sigma Aldrich) treatment was for 15 min. After CDDO-EA, LPS, and insulin treatment, myotubes were fixed without permeabilization and stained with anti-c-myc primary antibody (cat #C3956, 1:100, Sigma Aldrich) and a goat anti-rabbit secondary antibody conjugated with Alexa Fluor® 488 (cat #A32731, 1:500, Invitrogen) as previously described.

MCP-1 [2] = experiment: RT-PCR of PA-induced MCP-1 gene expression in L6-GLUT4myc myotubes; type: cell-based, rat; conditions: CDDO-EA 500 nM 1 h then PA 400 μM 6 h
Protocol: as §1

MCP-1 [3] = experiment: Quantitative RT-PCR of LPS-induced MCP-1 mRNA in L6-GLUT4myc myotubes; type: cell-based, rat; conditions: 500 nM CDDO-EA 1 hr then 100 ng/ml LPS 1 hr
Protocol: Quantitative RT-PCR: L6-GLUT4myc myoblasts (4×10^4 cell/ml, 2 ml/well) were seeded on a 6-well plate and differentiated into myo-tubes with differentiation medium for 7 days. Myotubes were pre-treated with CDDO-EA 500 nM for 1 h followed by LPS 100 ng/ml (E. coli O111: B4, Sigma Aldrich) treatment for 1 h. RNA was isolated from treated myotubes using TRIzol reagent (Ambion) according to the manufacturer's instructions. Validated RT-PCR primers specific for rat TNF-α (Assay ID: Rn99999017_m1) and rat MCP-1 (Assay ID: Rn00580555_m1), or rat GAPDH (Assay ID: Rn99999916_s1) were used to quantify mRNA levels using TaqMan RNA-to-CT 1-Step Kit (Thermo Fisher Scientific), Real-time PCR was carried out using an AB7900HT Fast Real-Time PCR System (Applied Biosystems), and MCP-1 and TNF-α levels were calculated using the ΔΔCT method according to the manufacturer's instructions.

With CCNC(=O)[C@]12CCC(C)(C)C[C@H]1C1C(=O)C=C3[C@@]4(C)C=C(C#N)C(=O)C(C)(C)[C@@H]4CC[C@@]3(C)[C@]1(C)CC2 (stereo partly drawn) [CDDO-EA, (4aS,6aR,6bS,8aR,12aS,14bS)-11-cyano-N-ethyl-2,2,6a,6b,9,9,12a-heptamethyl-10,14-dioxo-1,3,4,5,6,6a,6b, 7,8,8a,9,10,12a, 14,14a, 14b-hexadecahydropicene-4a (2H)-carboxamide] the “PA-induced NFκB phosphorylation” value (NFκB) was “inhibits PA-induced NF-κB activation; also recorded: inhibits PA-induced NFκB phosphorylation”, the OGTT serum glucose ([1]; HFD + CDDO-EA, after 6 weeks (FIG. 6B)) was “prevented increased serum glucose; also recorded: significantly decrease to glucose levels before the HFD experimental feeding; also recorded: prevents glucose intolerance” and the OGTT serum insulin ([1]; HFD + CDDO-EA, after 6 weeks (FIG. 7B)) was “prevented increased serum glucose (FIG. 6B) and insulin concentrations; also recorded: insulin levels did not increase significantly; also recorded: prevents hyperinsulinemia”. For the same compound, the “serum glucose levels during feeding” value ([1]; HFD with CDDO-EA, weeks 0-6 (FIG. 13A)) was “did not increase throughout the six-week feeding; also recorded: prevents glucose intolerance”, the “serum insulin levels during feeding” value ([1]; HFD with CDDO-EA, weeks 0-6 (FIG. 13B)) was “remained significantly higher in mice fed only a HFD compared to mice fed a HFD with CDDO-EA; also recorded: prevents hyperinsulinemia” and the serum glucose levels ([1]; LFD + CDDO-EA, after 6 weeks (FIG. 6A)) was “no significant increase or decrease in serum glucose levels; also recorded: did not affect glucose and insulin levels of mice fed LFD with CDDO-EA”. For the same compound, the insulin levels ([1]; LFD + CDDO-EA, after 6 weeks (FIG. 7A)) was “overlap with the insulin levels before experimental feeding; also recorded: did not affect glucose and insulin levels of mice fed LFD with CDDO-EA”, the “LPS-induced NF-κB transcriptional (luciferase) activity” value (NF-κB) was “prevented the promoter activity of NF-κB; also recorded: significantly inhibited the LPS-induced NF-κB activity; also recorded: blocks NF-κB transcriptional activity” and the “PA-induced TNF-α gene expression” value (TNF-α) was “inhibits PA-induced NF-κB activation and MCP-1 and TNF-α gene expression; also recorded: blocks TNF-α and MCP-1 gene expression”. For the same compound, the “CDDO-EA-stimulated GLUT4myc translocation in presence of LPS” value (GLUT4; 500 nM CDDO-EA 1 h then 100 ng/ml LPS 1 h) was “did not inhibit CDDO-EA-stimulated GLUT4myc translocation; also recorded: did not prevent CDDO-EA-stimulated GLUT4myc translocation to the cell surface”, the “GLUT4myc translocation to the cell surface” value (GLUT4; CDDO-EA 500 nM 1 h, insulin 100 nM 15 min) was “induced GLUT4myc translocation to the cell surface; also recorded: activates GLUT4 translocation to cell membrane and p38 phosphorylation” and the “PA-induced MCP-1 gene expression” value (MCP-1 [2]) was “inhibits PA-induced NF-κB activation and MCP-1 and TNF-α gene expression; also recorded: blocks TNF-α and MCP-1 gene expression”. The “LPS-induced MCP-1 mRNA expression” value (MCP-1 [3]) was “lowered LPS-induced mRNA levels of TNF-α and MCP-1; also recorded: blocked the mRNA expression of LPS-induced TNF-α and MCP-1; also recorded: reduced LPS-induced TNF-α and MCP-1 gene expression levels; also recorded: inhibits LPS-inducted TNF-α and MCP-1 gene expression”.
